# Source: PMC6037002, “Drug targeting to decrease cardiotoxicity – determination of the cytotoxic effect of GnRH-based conjugates containing doxorubicin, daunorubicin and methotrexate on human cardiomyocytes and endothelial cells” (Beilstein Journal of Organic Chemistry, 2018)
# Read-outs that look alike come from different tables or passages of the source.
# What was measured:
# [1] = test system: human acute monocytic leukemia (MonoMac6) cells; conditions: cited from earlier work
# Text: (§1) Table 1 Comparative study of cytotoxic effects and cardiotoxicity elicited by GnRH-based antitumor compounds (1–15) and reference substances (AN-152, Dox, Dau, Mtx). IC50 values show antitumor cytotoxic characteristics of the conjugates in human breast cancer (MCF-7), human colorectal adenocarcinoma (HT-29) and human acute monocytic leukemia (MM6) derived cell lines as representative tumor cells.
# [2] = test system: MCF-7 human breast adenocarcinoma cells; conditions: MTT assay; cited from earlier work
# Text: as §1
# [3] = test system: HT-29 human colon adenocarcinoma cells; conditions: MTT assay; cited from earlier work
# Text: as §1
# [4] = test system: human umbilical vein endothelial cells (HUVEC); test: Impedimetric measurement (xCELLigence SP), delta slope, HUVEC; conditions: for delta slope (DS), short-term / delta slope (DS), long-term: HUVEC, three parallels; for delta slope (DS), short-term: 0–2 h; for delta slope (DS), long-term: 0–72 h; for cytotoxic effect on HUVEC, result in words: long-term (0–72 h), 10^−8–10^−6 mol/L, impedimetry, one-way ANOVA
# Text: (§2) The main objective of the study reported here was to evaluate the in vitro cardiotoxic effects (as undesired side effects) of […] GnRH-III-based conjugates containing doxorubicin, daunorubicin and methotrexate on two essential target cells of cardiovascular diseases: vascular endothelial cells and cardiomyocytes. The rate of cytotoxicity (antitumor effect) vs cardiotoxicity (toxic effects on cardiomyocytes and vascular endothelium) is an important factor for efficient drug development for targeted tumor therapy with minimized side effects. The technique used in this work – impedimetry – is a dedicated one for real-time monitoring of cells to distinguish short-term (0–2 hours) and long-term (0–72 hours) effects elicited by the drug or carrier–drug conjugates. The basic theory of impedimetry is that proliferation/viability of cells is well detectable by monitoring of the electric impedance (Z) in an AC environment, due to the electric insulator character of intact surface membranes composed of the phospholipid bilayer. […] While cell physiological responses of short-term exposures result in characteristic changes of cell morphology (e.g., spreading), long-term effects characteristically influence in particular the proliferation of cells, and therefore the cytotoxic effects. The presented dimensionless values of delta slope (DS) measure the difference between the slope of the curve corresponding to the treatment and that of the control curve in impedimetric recordings, the negative signs refer to the relative values to the identical control.
# (§3) Experimental part – Cellular samples
# (§4) In the present study, GnRH conjugates containing anti-tumour drugs (e.g., daunorubicin, doxorubicin) were investigated in order to evaluate whether the conjugates exert a decrease cardiotoxic effect compared to that of the free drugs. The cardiac myocytes and the vascular endothelium cells are the most frequently detected target cells of antitumor compounds and they are employed in our study. Human umbilical vein endothelial cells (HUVEC; Promocell, Biomedica, Wien, Austria) were cultured in Endothelial Cell Growth Medium with Endothelial Cell Growth Supplement Mix (Promocell, Biomedica, Wien, Austria) and 100 µg/mL penicillin/streptomycin. Primary human cardiac myocytes (HCM; Promocell, Biomedica, Wien, Austria) were cultured in Myocyte Growth Medium (Promocell, Biomedica, Wien, Austria).
# (§5) Impedimetric measurements
# (§6) The xCELLigence SP system was used for impedimetric measurements. The bottom of the wells of a 96-well E-plate is installed with a golden electrode array that constitutes the adhesion surface. Adhering cells – acting as insulators – change the electric impedance measured on the electrodes. The measured impedance change is in direct correlation with the number of adhering cells and the extent of adhesion. The results of impedance change are given in the form of Cell Index (CI) calculated by the xCELLigence system according to the […]
# (§7) where Zt is the measured impedance in a time point, Zb is the background impedance and F is an inbuilt factor (F = 15 at 10 kHz) depending on the frequency of the alternating current. The measurements took place in an incubator holding a 37 °C temperature and 5% carbon-dioxide […]
# (§8) The experiments started with a measurement of baseline impedance for 1 hour. After that, the cells (10^4 cells/well) were added to the wells and allowed to adhere to the electrodes. When the adhering cells reached a balanced state in the wells, signified by the impedance curves […]
# (§9) free drugs at 10−12 – 10−6 M and the conjugates at 10−8 – 10−6 M final concentrations were […]
# (§10) added to the wells. The changes in impedance were measured for at least 72 hours. For each measurement three parallels were measured.
# (§11) The evaluation of responses followed the previously described strategy: acute effects of compounds were evaluated as a characteristic morphology of the curves in the 0–2 hours
# [5] = test system: primary human cardiac myocytes (HCM); conditions: for delta slope (DS), short-term / delta slope (DS), long-term: HCM, three parallels; for delta slope (DS), short-term: 0–2 h; for delta slope (DS), long-term: 0–72 h; for cytotoxic effect on HCM, result in words: long-term (0–72 h), 10^−8–10^−6 mol/L (free drugs 10^−12–10^−6 mol/L), impedimetry, one-way ANOVA
# Text: as §2, §3, §4, §5, §6, §7, §8, §9, §10, §11
# [6] = grade +++/++/+/0, key not given, summary of impedimetric cytotoxicity
Compound,IC50 [1],IC50 [2],IC50 [3],"delta slope (DS), short-term ([4]; Table S2a, 10^-6 mol/L)","delta slope (DS), short-term ([4]; Table S2a, 10^-7 mol/L)","delta slope (DS), short-term ([4]; Table S2a, 10^-8 mol/L)","delta slope (DS), short-term ([5]; Table S2b, 10^-6 mol/L)","delta slope (DS), short-term ([5]; Table S2b, 10^-7 mol/L)","delta slope (DS), short-term ([5]; Table S2b, 10^-8 mol/L)","delta slope (DS), short-term ([4]; Table S3a, 10^-6 mol/L)","delta slope (DS), short-term ([4]; Table S3a, 10^-7 mol/L)","delta slope (DS), short-term ([4]; Table S3a, 10^-8 mol/L)","delta slope (DS), long-term ([4]; Table S3a, 10^-6 mol/L)","delta slope (DS), long-term ([4]; Table S3a, 10^-7 mol/L)","delta slope (DS), long-term ([4]; Table S3a, 10^-8 mol/L)","Cardiotoxicity, HUVEC [4, 6]","cytotoxic effect on HUVEC, result in words [4]","delta slope (DS), short-term ([5]; Table S3b, 10^-6 mol/L)","delta slope (DS), short-term ([5]; Table S3b, 10^-7 mol/L)","cytotoxic effect on HCM, result in words [5]",further results
COc1cccc2c1C(=O)c1c(O)c3c(c(O)c1C2=O)C[C@@](O)(C(=O)CO)C[C@@H]3O[C@H]1C[C@H](N)[C@H](O)[C@H](C)O1 [doxorubicin],7 ± 0.1 nM,100 nM,100 nM,0.012,0.032,0.002,0.057,-0.001,0.001,–,–,–,–,–,–,–,–,–,–,–,"Cardiotoxicity, HUVEC [4]: +++; delta slope (DS), short-term ([4]; Table S1a, 10^-6 mol/L): 0.063; delta slope (DS), short-term ([4]; Table S1a, 10^-7 mol/L): 0.037; delta slope (DS), short-term ([4]; Table S1a, 10^-8 mol/L): -0.008; delta slope (DS), short-term ([4]; Table S1a, 10^-9 mol/L): 0.003; delta slope (DS), short-term ([4]; Table S1a, 10^-10 mol/L): -0.004; delta slope (DS), short-term ([4]; Table S1a, 10^-11 mol/L): 0.021; delta slope (DS), short-term ([4]; Table S1a, 10^-12 mol/L): 0.008; Cardiotoxicity, HCM [5]: +++; delta slope (DS), short-term ([5]; Table S1b, 10^-6 mol/L): 0.019; delta slope (DS), short-term ([5]; Table S1b, 10^-7 mol/L): 0.003; delta slope (DS), short-term ([5]; Table S1b, 10^-8 mol/L): 0.001; delta slope (DS), short-term ([5]; Table S1b, 10^-9 mol/L): -0.001; delta slope (DS), short-term ([5]; Table S1b, 10^-10 mol/L): 0.002; delta slope (DS), short-term ([5]; Table S1b, 10^-11 mol/L): 0.002; delta slope (DS), short-term ([5]; Table S1b, 10^-12 mol/L): 0.001"
"Glp-His-Trp-Ser-Tyr-D-Lys(Dox-O-glut)-Leu-Arg-Pro-Gly-NH2 [AN-152, reference compound]",35 ± 10 nM,200 ± 100 nM,1900 ± 300 nM,0.031,0.014,-0.004,0.008,-0.001,0.001,–,–,–,–,–,–,–,–,–,–,–,"delta slope (DS), long-term ([4]; Table S2a, 10^-6 mol/L): −0.051; delta slope (DS), long-term ([4]; Table S2a, 10^-6 mol/L, listed as An-152): -0.051; delta slope (DS), long-term ([4]; Table S2a, 10^-7 mol/L): −0.029; delta slope (DS), long-term ([4]; Table S2a, 10^-7 mol/L, listed as An-152): -0.029; delta slope (DS), long-term ([4]; Table S2a, 10^-8 mol/L): -0.005; delta slope (DS), long-term ([5]; Table S2b, 10^-6 mol/L): −0.023; delta slope (DS), long-term ([5]; Table S2b, 10^-6 mol/L, listed as An-152): -0.023; delta slope (DS), long-term ([5]; Table S2b, 10^-7 mol/L): −0.008; delta slope (DS), long-term ([5]; Table S2b, 10^-7 mol/L, listed as An-152): -0.008; delta slope (DS), long-term ([5]; Table S2b, 10^-8 mol/L): -0.001"
GnRH-III(Dau=Aoa) [conjugate 4],> 1000 nM,6500 ± 1800 nM,27800 ± 4200 nM,–,–,–,–,–,–,-0.003,-0.003,0.001,-0.001,-0.001,-0.001,0,completely lost the cytotoxic effect,0.001,-0.001,completely lost their cytotoxic effect,"delta slope (DS), short-term ([5]; Table S3b, 10^-8 mol/L): -0.002; delta slope (DS), long-term ([5]; Table S3b, 10^-6 mol/L): -0.001; delta slope (DS), long-term ([5]; Table S3b, 10^-7 mol/L): -0.001; delta slope (DS), long-term ([5]; Table S3b, 10^-8 mol/L): -0.001; Cardiotoxicity, HCM [5, 6]: 0"
GnRH-III(Dau=Aoa-GFLG) [conjugate 7],894 ± 250 nM,3900 ± 1200 nM,22500 ± 1700 nM,–,–,–,–,–,–,–,–,–,–,–,–,–,–,–,–,completely lost their cytotoxic effect,"delta slope (DS), short-term ([4]; Table S4a, 10^-6 mol/L): 0.003; delta slope (DS), short-term ([4]; Table S4a, 10^-7 mol/L): -0.012; delta slope (DS), short-term ([4]; Table S4a, 10^-8 mol/L): -0.002; delta slope (DS), long-term ([4]; Table S4a, 10^-6 mol/L): −0.013; delta slope (DS), long-term ([4]; Table S4a, 10^-7 mol/L): 0.001; delta slope (DS), long-term ([4]; Table S4a, 10^-8 mol/L): -0.001; delta slope (DS), short-term ([5]; Table S4b, 10^-6 mol/L): 0.003; delta slope (DS), short-term ([5]; Table S4b, 10^-7 mol/L): -0.001; delta slope (DS), short-term ([5]; Table S4b, 10^-8 mol/L): -0.001; delta slope (DS), long-term ([5]; Table S4b, 10^-6 mol/L): -0.002; delta slope (DS), long-term ([5]; Table S4b, 10^-7 mol/L): -0.002; delta slope (DS), long-term ([5]; Table S4b, 10^-8 mol/L): 0.001"
GnRH-III(Dau=Aoa-K(Dau=Aoa)) [conjugate 12],> 1000 nM,3000 ± 400 nM,5600 ± 2000 nM,–,–,–,–,–,–,-0.003,0.010,0.009,-0.001,-0.001,-0.001,0,completely lost the cytotoxic effect,-0.001,-0.001,completely lost their cytotoxic effect,"delta slope (DS), short-term ([5]; Table S3b, 10^-8 mol/L): -0.001; delta slope (DS), long-term ([5]; Table S3b, 10^-6 mol/L): -0.002; delta slope (DS), long-term ([5]; Table S3b, 10^-7 mol/L): -0.001; delta slope (DS), long-term ([5]; Table S3b, 10^-8 mol/L): -0.001; Cardiotoxicity, HCM [5, 6]: 0"
